Literature values as cited in paper PMC12039075 (Structure (London, England : 1993), 2022).

Test system: human nicotinic receptor (HNR) α4/β2 subunit

CN1CCC[C@H]1c1cccnc1 [nicotine]
published affinity range: 0.6 to 10 nM
